Test results from patent US20090317373A1, “Inhibition of the Anti-FVIII Immune Response” (Institut National De La Sante Et De La Recherche Medicale, priority 2005, published 2009).

Experiments:
[1] = biological target: T1, CTLD(4-7)-Fc (construct of the mannose receptor) (Mus musculus, UniProt Q61830); assay: ELISA binding of mannose receptor construct CTLD(4-7)-Fc to coated ligands; conditions: ELISA plates coated with ligand; FIG. 3c
T1 construct: gift of Dr Luisa Martinez-Pomares, University of Nottingham
Method: Constructs of the mannose receptor, CTLD(4-7)-FC and CR-FNII-CTLD(1-3)-CR-Fc, were kindly donated by Dr Luisa Martinez-Pomares, School of Molecular Medical Sciences, Queen's Medical Centre, University of Nottingham, UK. The binding of the constructs to whole recombinant human FVIII and to B domain-deleted recombinant human FVIII was tested either directly by measuring the binding to ELISA plates coated with ligands (mannan was used as a positive control) or indirectly by inhibition tests. The ELISA plates (Nunc; MAXISORP) were coated overnight with dilution series of the FVIII forms (starting at 50 μg/ml) in 154 mM NaCl. TTBS buffer (Tris-HCl 10 mM, pH 7.5, Ca^2+ 10 mM, NaCl 154 mM and 0.05% Tween-20) was used for all the washings. The non-reactive sites were blocked by TBS buffer (TTBS without Tween-20) containing 3% BSA. The plates were then incubated with 2 or 10 μg/ml of the constructs for 2 h at room temperature in TTBS buffer containing 3% BSA. The binding of the MR constructs was detected using a mouse antibody specific for the Fc part of human IgG conjugated to HRP (clone JDC-10, Southern Biotechnology Associates, Inc. AL, USA). […] The absorbance was measured at 492 nm. For the inhibition tests, the plates were coated with each form of FVIII (5.56 μg/ml). […] The absorbance was measured as described above. […]

autologous CD4+ T cells = assay: In vitro proliferation of autologous CD4+ T cells (tritiated thymidine); assay type: cell-based, human; conditions: DCs incubated with mannan (1 mg/ml) before FVIII; FIG. 4a
Method: The DCs of Example 1 were incubated with mannan (1 mg/ml) for 30 min at 37° C. FVIII dialyzed against RPMI 1640 medium (Kogenate, Bayer) was added (40 μg/ml, 0.143 μM) for 2 hours. The cells were then washed and incubated with LPS (1 μg/0.5 million cells) in complete medium for 48 hours. The cells were then washed and cultured (RPMI 1640 medium, supplemented with 10% male human AB serum, in 96-well cell culture plates with a round base with 200 μl per well) with autologous CD4+ T cells obtained from the PBMC of the corresponding donor using the MACS cell isolation kit (Miltenyi Biotech, Bergisch Gladbach, Germany). The number of CD4+ T cells was kept constant in each well (100,000 cells/well), while the number of DCs varied (5,000, 10,000 and 15,000 DCs in triplicate), giving a T:DC cell ratio of 20:1, 10:1, 6.6:1.
After culture for 4 days, 0.5 μCi of tritiated thymidine was added to each well. The cells were harvested after 16 hours and the radioactivity incorporated was counted.

[2] = test system: D9E9 (T cell clone specific for FVIII); assay: In vitro activation of FVIII-specific T cell clone D9E9 (IFN-gamma production); assay type: cell-based, human
Method: After washing, the DCs of Example 1 were resuspended in DMEM:F12 (1:1) medium containing 10% FCS and 10,000 DCs were introduced into each well of a 96-well cell culture plate with a round base. After incubation with mannan (1 mg/ml) in each well for 30 min, the DCs were cultured with 5,000 D9E9 (T cell clone specific for FVIII) in DMEM:F12 (1:1) medium containing 10% FCS and 20 U/ml of rhIL-2 with various doses of whole FVIII or FVIII-BDD (10, 8, 6, 4, 2 μg/ml) for 20 hours at 37° C. Like the D9E9 cells, the LE2E9 and BO2C11 lines of B cells transformed by EBV were cultured in the presence of 10 μg/ml of whole FVIII or FVIII-BDD. The control conditions were maintained in the absence of FVIII, D9E9 or DCs. As a negative control, hrFIX (Benefix, Baxter) was incubated with the cells at isomolar concentrations of FVIII. The supernatants were harvested at the end of the incubation period and tested for their production of IFNγ using the human IFN-γ Duo Set (DY285, R&D Systems) in accordance with the manufacturer's instructions.

FVIII = FVIII (Homo sapiens, UniProt P00451); assay: One-stage clotting test, residual FVIII activity in normal human plasma; assay type: biochemical; conditions: normal human plasma incubated with mannan 2 hours at 37° C.; FIG. 5a
Method: Normal human plasma was incubated with an identical volume of mannan ([…]) for 2 hours at 37° C. The residual FVIII activity was measured in a one-stage clotting test using human placental […] as an activator (Dade Behring Marburg GmbH, Marburg, Germany) and FVIII-depleted plasma (Dade Behring Marburg GmbH, Marburg, Germany) as a substrate and a fibrin timer (Sysmex CA500, Dade Behring). The dilutions were performed in Owren-Koller buffer (Diagnostica Stago, Asnieres, France).

binding of FVIII to VWF = binding of FVIII to VWF (Homo sapiens, UniProt P00451); assay: ELISA for binding of FVIII to VWF; conditions: FVIII preincubated with mannan (0.01 to 4 mg/ml); FIG. 5b
Method: ELISA plates (Nunc, Roskilde, Denmark) were coated with VWF (VWF, Willefectin, LFB, Les Ulis, France) at 2 μg/ml per well in PBS (pH 7.4) at 37° C. for 1 hour. The plates were saturated with PBS containing 1% skimmed milk and 0.1% Tween 20 for 1 hour at 37° C. FVIII (0.3 μg/ml) was preincubated by itself or with mannan (0.01 to 4 mg/ml) or with BO2C11 (human monoclonal anti-FVIII IgG) (0.05 to 40 μg/ml) in a blocking buffer for 1 hour at 37° C. and then added to the wells coated with VWF and incubated for 1 hour at 37° C. A mouse monoclonal anti-FVIII IgG (mAb6) (3 μg/ml) was incubated at 37° C. for 1 hour. […] No binding of FVIII was observed on the wells which had not been coated.

T1 sequence (Q61830 with tags, fused parts or gaps limits assumed): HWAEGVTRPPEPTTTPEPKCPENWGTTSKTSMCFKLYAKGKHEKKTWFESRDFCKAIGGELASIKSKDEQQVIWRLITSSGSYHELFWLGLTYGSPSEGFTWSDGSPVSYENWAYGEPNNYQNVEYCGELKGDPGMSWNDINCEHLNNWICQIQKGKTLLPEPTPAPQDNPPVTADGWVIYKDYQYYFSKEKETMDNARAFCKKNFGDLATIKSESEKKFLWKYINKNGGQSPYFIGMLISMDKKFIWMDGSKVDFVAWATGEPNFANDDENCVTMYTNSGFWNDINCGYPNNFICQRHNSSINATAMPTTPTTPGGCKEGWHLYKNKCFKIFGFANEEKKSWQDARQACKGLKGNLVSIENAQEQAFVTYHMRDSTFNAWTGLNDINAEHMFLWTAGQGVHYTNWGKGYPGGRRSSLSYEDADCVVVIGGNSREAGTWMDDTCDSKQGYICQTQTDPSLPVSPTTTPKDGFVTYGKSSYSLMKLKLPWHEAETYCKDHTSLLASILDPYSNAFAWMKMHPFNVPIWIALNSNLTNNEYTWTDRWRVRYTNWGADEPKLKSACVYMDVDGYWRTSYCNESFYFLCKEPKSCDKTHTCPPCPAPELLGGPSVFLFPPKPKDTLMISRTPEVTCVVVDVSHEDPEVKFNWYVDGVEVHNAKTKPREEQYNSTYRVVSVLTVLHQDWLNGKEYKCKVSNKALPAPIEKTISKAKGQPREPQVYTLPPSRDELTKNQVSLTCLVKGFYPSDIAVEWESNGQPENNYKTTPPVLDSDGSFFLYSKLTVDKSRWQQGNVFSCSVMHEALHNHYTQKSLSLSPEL
Sequence of FVIII (P00451 20-1667 limits assumed): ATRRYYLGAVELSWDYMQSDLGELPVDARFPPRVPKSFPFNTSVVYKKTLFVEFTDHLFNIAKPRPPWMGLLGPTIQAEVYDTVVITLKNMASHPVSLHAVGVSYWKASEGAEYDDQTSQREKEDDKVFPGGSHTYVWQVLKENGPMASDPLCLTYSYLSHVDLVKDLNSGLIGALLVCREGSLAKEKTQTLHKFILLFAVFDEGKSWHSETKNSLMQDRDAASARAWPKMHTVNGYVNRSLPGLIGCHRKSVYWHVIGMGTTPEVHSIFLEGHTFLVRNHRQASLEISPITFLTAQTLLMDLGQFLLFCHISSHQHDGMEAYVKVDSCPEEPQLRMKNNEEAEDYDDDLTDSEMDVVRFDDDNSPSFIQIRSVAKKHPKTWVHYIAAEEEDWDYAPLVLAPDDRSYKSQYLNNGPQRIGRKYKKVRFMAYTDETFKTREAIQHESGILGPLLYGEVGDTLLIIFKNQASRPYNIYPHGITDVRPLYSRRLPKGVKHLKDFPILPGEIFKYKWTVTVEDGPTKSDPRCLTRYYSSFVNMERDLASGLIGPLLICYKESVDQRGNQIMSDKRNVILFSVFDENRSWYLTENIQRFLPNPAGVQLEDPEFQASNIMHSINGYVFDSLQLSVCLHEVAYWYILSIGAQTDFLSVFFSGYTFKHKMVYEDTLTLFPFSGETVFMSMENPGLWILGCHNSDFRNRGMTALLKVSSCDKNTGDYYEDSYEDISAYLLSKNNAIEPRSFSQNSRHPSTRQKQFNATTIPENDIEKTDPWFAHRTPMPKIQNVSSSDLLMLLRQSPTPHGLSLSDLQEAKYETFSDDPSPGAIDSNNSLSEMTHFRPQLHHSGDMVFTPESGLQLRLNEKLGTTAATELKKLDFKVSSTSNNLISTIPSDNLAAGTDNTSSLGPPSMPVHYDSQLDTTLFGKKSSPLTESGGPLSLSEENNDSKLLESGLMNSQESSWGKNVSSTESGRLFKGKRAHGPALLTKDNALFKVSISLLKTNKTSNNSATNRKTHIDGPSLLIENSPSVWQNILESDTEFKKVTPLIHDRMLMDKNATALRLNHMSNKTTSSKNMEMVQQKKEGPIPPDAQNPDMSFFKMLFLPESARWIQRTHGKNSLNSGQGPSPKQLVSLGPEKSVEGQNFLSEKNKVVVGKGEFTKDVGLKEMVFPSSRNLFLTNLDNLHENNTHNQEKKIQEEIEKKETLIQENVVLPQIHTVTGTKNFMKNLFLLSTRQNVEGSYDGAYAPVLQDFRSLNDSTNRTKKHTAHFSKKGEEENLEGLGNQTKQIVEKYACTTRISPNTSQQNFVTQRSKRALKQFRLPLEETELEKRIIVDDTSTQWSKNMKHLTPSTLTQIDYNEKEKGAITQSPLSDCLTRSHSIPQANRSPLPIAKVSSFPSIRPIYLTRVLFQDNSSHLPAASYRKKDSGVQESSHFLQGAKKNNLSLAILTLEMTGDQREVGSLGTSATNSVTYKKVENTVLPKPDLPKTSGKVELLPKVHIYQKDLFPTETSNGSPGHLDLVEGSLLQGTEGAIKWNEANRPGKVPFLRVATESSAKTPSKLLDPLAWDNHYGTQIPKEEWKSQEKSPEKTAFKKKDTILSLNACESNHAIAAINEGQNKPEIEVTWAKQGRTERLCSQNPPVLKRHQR
Sequence of FVIII (P00451 1668-2351 limits assumed): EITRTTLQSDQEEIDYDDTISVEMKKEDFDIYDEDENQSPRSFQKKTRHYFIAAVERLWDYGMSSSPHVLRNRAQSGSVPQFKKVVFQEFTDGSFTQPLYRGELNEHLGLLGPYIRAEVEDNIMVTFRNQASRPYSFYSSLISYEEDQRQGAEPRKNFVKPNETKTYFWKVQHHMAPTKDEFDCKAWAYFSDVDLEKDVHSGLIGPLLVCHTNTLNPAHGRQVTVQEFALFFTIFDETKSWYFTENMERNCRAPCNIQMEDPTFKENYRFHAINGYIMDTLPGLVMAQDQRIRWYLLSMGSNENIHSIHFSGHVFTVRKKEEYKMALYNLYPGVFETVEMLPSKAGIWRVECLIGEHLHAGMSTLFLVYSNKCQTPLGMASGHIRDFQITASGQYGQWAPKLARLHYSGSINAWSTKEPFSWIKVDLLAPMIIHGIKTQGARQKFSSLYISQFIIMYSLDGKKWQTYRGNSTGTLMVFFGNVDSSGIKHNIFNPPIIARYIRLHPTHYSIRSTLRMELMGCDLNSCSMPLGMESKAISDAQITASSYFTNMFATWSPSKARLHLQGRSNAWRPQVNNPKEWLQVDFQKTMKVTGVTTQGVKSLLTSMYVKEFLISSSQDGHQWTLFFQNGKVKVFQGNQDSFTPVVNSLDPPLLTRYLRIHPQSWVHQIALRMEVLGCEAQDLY
Sequence of binding of FVIII to VWF (P00451 20-1667 limits assumed): as the sequence (P00451 20-1667 limits assumed) above
Sequence of binding of FVIII to VWF (P00451 1668-2351 limits assumed): as the sequence (P00451 1668-2351 limits assumed) above

mannan
binding to CTLD(4-7)-Fc [1]: specific binding | proliferation of T cells (autologous CD4+ T cells): levels comparable to those of negative controls | inhibition of FVIII-induced activation of D9E9 cells ([2]; DCs preincubated with mannan (1 mg/ml), FIG. 4b (B)): up to 84% | activation of D9E9 cells by autologous B cells pulsed with FVIII, LE2E9 ([2]; in presence of mannan, FIG. 4b (C)): does not prevent activation | effect on proclotting activity of FVIII (FVIII): does not block | effect on interaction of FVIII with VWF (binding of FVIII to VWF): does not interfere
